In ChEMBL document CHEMBL4007488, “Amphiphilic Indole Derivatives as Antimycobacterial Agents: Structure-Activity Relationships and Membrane Targeting Properties” (J Med Chem, 2017):
Values after ≈ are worked out from the molar mass of the structure shown. Active and inactive are the calls of the source. The rule behind the calls is not given here.

Columns and labels:
[1] = tested on: Lipid bilayer; assay: Binding affinity to DMPG vesicles assessed as change in enthalpy by differential scanning calorimetric analysis
[2] = tested on: Lipid bilayer; assay: Binding affinity to DMPG vesicles assessed as melting transition temperature by differential scanning calorimetric analysis (reference value: 21.09 to 23.32 degC)
[3] = tested on: Lipid bilayer; assay: Binding affinity to DMPG vesicles assessed as increase in width at 1/2 height of endotherm of compound containing vesicles by differential scanning calorimetric analysis
[4] = tested on: Mycobacterium tuberculosis; assay: Antimycobacterial activity against Mycobacterium tuberculosis H37Rv ATCC 27294 assessed as growth inhibition at 10 uM after 5 days relative to control; format: functional; conditions: H37Rv ATCC 27294, 120 h, read-out: GI
[5] = tested on: Mycolicibacterium smegmatis; assay: Antimycobacterial activity against Mycobacterium smegmatis MC2 155 ATCC 700084 assessed as growth inhibition at 10 uM after 5 days relative to control; format: functional; conditions: MC2 155 ATCC 700084, 120 h, read-out: GI
[6] = tested on: Mycobacterium tuberculosis; assay: Antimycobacterial activity against Mycobacterium tuberculosis H37Rv ATCC 27294 after 5 days by broth dilution method; format: functional; conditions: H37Rv ATCC 27294, 120 h
[7] = tested on: HepG2; assay: Cytotoxicity against human HepG2 cells assessed as reduction in cell viability after 48 hrs by MTT assay; format: cell-based; conditions: HepG2, 48 h
[8] = tested on: Vero C1008; assay: Cytotoxicity against African green monkey Vero E6 cells assessed as reduction in cell viability after 48 hrs by 96 aqueous one-based assay; conditions: Chlorocebus sabaeus, Vero C1008, 48 h
[9] = Aqueous solubility of compound at pH 7.4 at 25 degC after 24 hrs; format: physicochemical; conditions: buffer
[10] = Selectivity index, ratio of IC50 for human HepG2 cells to MIC50 for Mycobacterium tuberculosis H37Rv ATCC 27294; format: toxicity; conditions: read-out: Selectivity Index
[11] = Selectivity index, ratio of IC50 for African green monkey Vero E6 cells to MIC50 for Mycobacterium tuberculosis H37Rv ATCC 27294; format: toxicity, Vero C1008; conditions: read-out: Selectivity Index
[12] = Half life in rat liver microsomes preincubated for 5 mins followed by NADPH addition measured up to 45 mins by LC-MS analysis; format: ADME, microsome
[13] = Therapeutic index, ratio of HC50 for human RBC to MIC50 for Mycobacterium tuberculosis H37Rv ATCC 27294
[14] = tested on: Mycobacteroides abscessus; assay: Antimycobacterial activity against Mycobacterium abscessus Bamboo after 3 days; format: functional; conditions: 72 h
[15] = tested on: Mycobacterium avium; assay: Antimycobacterial activity against Mycobacterium avium 11 after 4 days; format: functional; conditions: Mycobacterium avium, 11, 96 h
[16] = tested on: Staphylococcus aureus; assay: Antibacterial activity against Staphylococcus aureus ATCC 29213 after 18 hrs; format: functional; conditions: ATCC 29213, 18 h
[17] = tested on: Escherichia coli; assay: Antibacterial activity against Escherichia coli ATCC 25922 after 18 hrs; format: functional

## CCCCCCCCn1cc(C(=O)N2CCCCCC2)c2cc(F)ccc21
[1]
  deltaH: -2.52 kcal/mol
[2]
  Tm: 18.9 °C
[3]
  Activity: inactive
[4]
  inhibition of growth at 10 µM: 99%
[5]
  inhibition of growth at 10 µM: 99%

## CCCCCCCCn1cc(CNC23CC4CC(CC(C4)C2)C3)c2ccc(OC)cc21
[4]
  inhibition of growth at 10 µM: 99%
[5]
  inhibition of growth at 10 µM: 99%

## CCCCCCCCn1cc(CNC23CC4CC(CC(C4)C2)C3)c2c(F)cccc21
[6]
  MIC50: 2 µM (≈ 0.821 µg/mL)
  MIC90: 3 µM (≈ 1.23 µg/mL)
[7]
  IC50: 13 µM
[8]
  IC50: 16 µM
[9]
  solubility at 24 h: 10.2 µM (≈ 4.19 µg/mL)
[10]
  selectivity ratio: 6.5
[11]
  selectivity ratio: 8
[12]
  half-life: 0.265 h
[4]
  inhibition of growth at 10 µM: 99%
[5]
  inhibition of growth at 10 µM: 99%

## CCCCCCCCn1cc(CN2CCCCCC2)c2cccc(F)c21
[4]
  inhibition of growth at 10 µM: 99%
[5]
  inhibition of growth at 10 µM: 99%

## CCCCCCCCn1cc(CN2CCCC2)c2cc(F)ccc21
[4]
  inhibition of growth at 10 µM: 99%
[5]
  inhibition of growth at 10 µM: 99%

## CCCCCCCCn1cc(CN2CCC(C)CC2)c2cc(OC)ccc21
[4]
  inhibition of growth at 10 µM: 99%
[5]
  inhibition of growth at 10 µM: 99%

## Fc1ccc2c(c1)c(CN1CCCCC1)cn2Cc1ccccc1
[4]
  inhibition of growth at 10 µM: 99%
[5]
  inhibition of growth at 10 µM: 99%

## CCCCCCCCn1cc(CN2CCCCCC2)c2c(F)cccc21
[13]
  TI: 15 to 30
[6]
  MIC50: 2.3 µM (≈ 0.825 µg/mL)
  MIC90: 5 µM (≈ 1.79 µg/mL)
[7]
  IC50: 19.2 µM
[8]
  IC50: 29.2 µM
[9]
  solubility at 24 h: 35.9 µM (≈ 12.9 µg/mL)
[10]
  selectivity ratio: 8.3
[11]
  selectivity ratio: 12.7
[12]
  half-life: 9.33 h
[1]
  deltaH: -1.39 kcal/mol
[2]
  Tm: 18 °C
[3]
  Activity: Active
[14]
  MIC50: 19 µM (≈ 6.81 µg/mL)
[15]
  MIC50: 2 µM (≈ 0.717 µg/mL)
[16]
  MIC50: 8 µM (≈ 2.87 µg/mL)
[17]
  Activity: inactive
[4]
  inhibition of growth at 10 µM: 99%
[5]
  inhibition of growth at 10 µM: 99%

## CC(C)=CCC/C(C)=C/Cn1cc(C(=O)N2CCCCC2)c2cc(F)ccc21
[4]
  inhibition of growth at 10 µM: 99%
[5]
  inhibition of growth at 10 µM: 99%

## CCCCCCCCn1cc(CN(CC)CCC)c2cc(F)ccc21
[4]
  inhibition of growth at 10 µM: 99%
[5]
  inhibition of growth at 10 µM: 99%

## CCCCCCCCn1cc(CN2CCCCCC2)c2cc(OC)ccc21
[4]
  inhibition of growth at 10 µM: 99%
[5]
  inhibition of growth at 10 µM: 99%

## CCCCCCCCn1cc(CNC23CC4CC(CC(C4)C2)C3)c2cc(OC)ccc21
[4]
  inhibition of growth at 10 µM: 99%
[5]
  inhibition of growth at 10 µM: 99%

## CCCN(CCC)Cc1cn(C/C=C(\C)CCC=C(C)C)c2ccc(F)cc12
[4]
  inhibition of growth at 10 µM: 99%
[5]
  inhibition of growth at 10 µM: 99%
